Measurements reported in patent US5013542A, “Method to inhibit adhesion of disease-causing microorganisms to teeth” (Forsyth Dental Infirmary for Children, priority 1988, dated 1991).
Where no end group is shown, it is not given here.

Experiments:
Experiment in all cases: Adhesion of radioactively labeled bacteria to treated hydroxyapatite (HA)
Type in all cases: cell-based
Actinomyces viscosus = test system: Actinomyces viscosus
Procedure: (§1) PRP-1 and PRP-1(Tl) were investigated for their abilities to promote adhesion of bacteria to HA. Essentially, the method is to treat HA samples with nothing (negative control), saliva (positive control), or the respective proteins or peptides. The excess agent is removed by washing, and suspensions of radioactively labeled bacteria are added to the treated HA. After a suitable time, the excess bacteria are removed by washing and those remaining adsorbed to the HA are counted in a scintillation counter. In the table of results, bacterial adsorption to saliva-treated HA is considered to be 100%, and adsorption to PRP-1 or PRP-1(Tl)-treated HA expressed as a percentage of this reference value. This approach is necessary because of the diverse behaviors of different bacteria.

Bacteroides gingivalis = test system: Bacteroides gingivalis
Procedure: as §1

Streptococcus mitis = test system: Streptococcus mitis
Procedure: as §1

Streptococcus mutans = test system: Streptococcus mutans
Procedure: as §1

Streptococcus sanguis = test system: Streptococcus sanguis
Procedure: as §1

[1] = HA treated with the protein/peptide, saliva-treated HA = 100%

PRP-1(T1): residues 1-30, highly acidic phosphoserine-containing amino-terminal segment of PRP-1 obtained by tryptic digestion at ARG(30) (QDLDEDVSQEDVPLVISDGGDSEQFIDEER; also: phosphoserine-containing, positions not given here; UniProt P02810 17-46, looked up, fragment)
PERCENT ADHESION COMPARED TO SALIVA-TREATED HA (Actinomyces viscosus; [1]): 17%
adhesion of organism to treated HA (in words) (Actinomyces viscosus; versus saliva-treated HA): significantly and profoundly depressed
adhesion of organism to treated HA (in words) (Bacteroides gingivalis; B. gingivalis, versus saliva-treated HA): significantly and profoundly depressed
PERCENT ADHESION COMPARED TO SALIVA-TREATED HA (Bacteroides gingivalis; Bacteroides gingivalis, HA treated with the protein/peptide, saliva-treated HA = 100%): 20%
PERCENT ADHESION COMPARED TO SALIVA-TREATED HA (Streptococcus mitis; [1]): 26%
adhesion of organism to treated HA (in words) (Streptococcus mitis; versus saliva-treated HA): significantly and profoundly depressed
PERCENT ADHESION COMPARED TO SALIVA-TREATED HA (Streptococcus mutans; [1]): 17%
adhesion of organism to treated HA (in words) (Streptococcus mutans; versus saliva-treated HA): significantly and profoundly depressed
adhesion of organism to treated HA (in words) (Streptococcus sanguis; S. sanguis, versus saliva-treated HA): significantly and profoundly depressed
PERCENT ADHESION COMPARED TO SALIVA-TREATED HA (Streptococcus sanguis; Streptococcus sanguis, HA treated with the protein/peptide, saliva-treated HA = 100%): 4%
